SMILES strings stand for the structures. Where only a bound is given, the exact number is not on record here.

Experiment [1] addresses T1, HA-tagged MINA53 (Homo sapiens, UniProt Q8IUF8).
T1 construct: expressed in transfected cells; host or cells: HEK293T, HeLa, U-87MG (transient, pEF6 vector)
The experiment is described as follows: Substrate trapping by anti-HA immunoprecipitation (RPL27A). Particulars: HEK293T, HeLa, U-87MG cells; 100 μM, 18 h. Type of experiment: cell-based. The method, then: Proteins were transferred onto nitrocellulose or PVDF membranes and incubated with rabbit γ-H2AX (#9718, Cell Signaling Technologies, MA) anti-GAPDH (Sc47724, Santa Cruz Biotechnology, Santa Cruz, CA), rabbit anti-RPL27A (Abcam, ab74731), goat anti-RPL8 (Abcam, ab63941), horseradish peroxidase (HRP)-conjugated anti-HA (Roche, 12013819001), and HRP-conjugated anti-β-actin (Abcam, ab-49900).
For immunoprecipitation, the cells were harvested on ice and lysed by rotation for 1 h at 4 °C in JIES buffer. The cell debris was subsequently pelleted by centrifugation (10 min at 21 910g at 4 °C), and the supernatant was incubated overnight at 4 °C with Pierce anti-HA agarose beads (Thermo Scientific, 26181). The next day, the beads were washed 6 times with JIES buffer before the immunoprecipitates were eluted for 15 min at 1400 rpm at room temperature using 1 mg/mL HA peptide (Thermo Scientific, 26184) dissolved in JIES buffer. The eluted samples were then prepared in 1× Laemmli loading buffer (6x: 125 mM Tris-HCl [pH 6.8], 6% (w/v) SDS, 50% (v/v) glycerol, 225 mM dithiothreitol (DTT), and 0.1% (w/v) bromophenol blue) and boiled for 5 min for detection by western blot.
Plasmid DNA transfections were performed using a FuGENE 6 transfection reagent (Promega, E2691). Briefly, a transfection mix of DNA and transfection reagent at a ratio of 1:3 was made up in Opti-MEM (Gibco, 31985070) and incubated for 30 min at room temperature before the complexes were added to the cells. A total of 500 ng of DNA was used per mL of culturing medium. The cells were seeded 24 h prior to transfection, and cell treatments were performed 24 h post-transfection.
Figure S18. MINA53 substrate trapping with inhibitors 9 and 10 in cells. HEK293T (A), HeL a (B) and U-87MG (C) cel ls transiently expressing an empty (EV), wild- type (WT) or catalytically […]
control for 18 h prior toanti -HAimmunoprecipitation (IP). Anti -HA IPs were immunoblotted for RPL27A (17 kDa) and HA. β -Actin was used as loading control. […]

For experiment [2], the system named is U-87MG cells. In words: Flow cytometric analysis of cell cycle distribution and Sub-G1 peak (PI staining). It is filed as cell-based, human. Particulars: 24 h; for accumulation of cells in the G2/M phase of the cell cycle / percentage of apoptotic cells (Sub-G1), compound alone: 10 μM; for percentage of apoptotic cells (Sub-G1), with doxorubicin: 10 μM compound + doxorubicin 0.5 μM. The method, then:
Cell cycle distribution and apoptosis were assayed by staining floating and adherent cells with propidium iodide ([…] RNase A and 20 μg/mL propidium iodide) for 45 min. Flow cytometric analyses were performed using Epics XL apparatus (Beckman Coulter). Ten thousand events were collected from each sample, and data were processed using Flowing software.

For experiment [3], the system named is IMS-M2. The experiment is described as follows: WST-1 cell proliferation assay. Particulars: AML, WST-1, 48 h, read-out: IC50 antiproliferative effect, IMS-M2. It is filed as cell-based. The method, then: (§1) The effect of compounds on cell proliferation of different leukemia and lymphoma cell lines OCI-AML3 (DSMZ ACC-582), IMS-M2 (a gift from Professor B. Falini, University of Perugia), OCI-AML2 (DSMZ, ACC-99), MV4–11 (ATCC, CRL-9591), Kasumi-1 (ATCC, CRL-2724), Karpass299 (DSMZ, ACC-31), U937 (ATCC, CRL1593.2), HL-60 (ATCC, CCL-240), and NB4 (DSMZ, ACC-207) was evaluated using the WST-1 assay (Roche Diagnostic GmbH Germany). The cells were plated, in triplicate, in 384-viewplate (Perkin Elmer) at a density of 5 × 10^3 cells/well in a final volume of 22.5 μL. The cells were incubated with increasing concentrations of compounds for 48 h at 37 °C, 5% CO2, then 2.5 μL of WST-1 reagent was added to each well for 1 h. For each cell line, dose–response curves were analyzed as nonlinear regression curves using GraphPad Prism (GraphPad Software Inc.) to obtain IC50 values.

The test system of experiment [4] is U937. The experiment is described as follows: WST-1 cell proliferation assay. Particulars: Homo sapiens, U-937; AML; WST-1, 48 h; read-out: IC50 antiproliferative effect, U937. Type of experiment: cell-based. The method, then: as §1
Experiment [5] deals with NB4. In words: WST-1 cell proliferation assay. It is filed as cell-based. Particulars: Homo sapiens, NB-4; APL; WST-1, 48 h; read-out: IC50 antiproliferative effect, NB4. The method, then:
as §1

Experiment [6] has as its system OCI-AML2. In words: WST-1 cell proliferation assay. Type of experiment: cell-based. Particulars: Homo sapiens, AML, WST-1, 48 h, read-out: IC50 antiproliferative effect, OCI-AML2. The method, then:
as §1

The subject of experiment [7] is OCI-AML3. In words: WST-1 cell proliferation assay. Particulars: Homo sapiens, OCI-AML-3, WST-1, 48 h, read-out: IC50 antiproliferative effect, OCI-AML3. It is filed as cell-based. The method, then: as §1
Experiment [8] has as its system Karpass299. The experiment is described as follows: WST-1 cell proliferation assay. It is filed as cell-based. Particulars: ALCL; WST-1, 48 h; read-out: IC50 antiproliferative effect, Karpass299. The method, then:
as §1

For experiment [9], the system named is U-87MG cells. The experiment is described as follows: MTT cell viability, alone or in combination with doxorubicin; combination index. Particulars: for combination index value with doxorubicin: less than 1 synergistic, higher than 1 antagonist; for cell viability reduction in cotreatment with doxorubicin: 1 μM doxorubicin + 20 μM compound; for cell viability reduction in cotreatment with doxorubicin / cell viability, single compound treatment / sensitization of U-87MG cells to doxorubicin: 24 h. It is filed as cell-based, human. The method, then:
Twenty-four hours following seeding, exponentially growing cells were treated with the different compounds at concentrations ranging from 10 to 100 μM for 72–120 h. Aqueous DMSO (0.5%, v/v) was used as a control (untreated). Cell viability was determined by the 3-(4,5-dimethylthiazol-2-yl)-2,5-diphenyltetrazolium bromide (MTT) colorimetric assay (Sigma-Aldrich). In summary, exponentially growing cancer cells were seeded in sextuplicate in 96-well culture plates (1.5 × 10^3 cells/well). After 24 h, the compounds were added at concentrations ranging from 10 to 100 μM. The effect of compounds on cancer cell proliferation was assessed by measuring the MTT dye absorbance of the cells as reported.[52] For combination treatments, the cells were treated with each of three compounds, either alone or in combination with doxorubicin. In particular, U-87MG cells were treated with doxorubicin alone or in combination with different MINA53 inhibitors for 24 h. The effect of different compounds or combinations (drug concentration ratio 1:20, doxorubicin: compound) on U-87MG cancer cell viability was assessed by measuring the MTT dye absorbance of cells. The interaction between doxorubicin (Doxo) and different compounds was evaluated based on the combination index (CI) using the CI equation through CalcuSyn software (Biosoft, Cambridge, U.K.). Synergism CI < 0.9, additivity 0.9 < CI < 1.1, antagonism CI > 1.1.

T1 sequence (Q8IUF8 whole entry): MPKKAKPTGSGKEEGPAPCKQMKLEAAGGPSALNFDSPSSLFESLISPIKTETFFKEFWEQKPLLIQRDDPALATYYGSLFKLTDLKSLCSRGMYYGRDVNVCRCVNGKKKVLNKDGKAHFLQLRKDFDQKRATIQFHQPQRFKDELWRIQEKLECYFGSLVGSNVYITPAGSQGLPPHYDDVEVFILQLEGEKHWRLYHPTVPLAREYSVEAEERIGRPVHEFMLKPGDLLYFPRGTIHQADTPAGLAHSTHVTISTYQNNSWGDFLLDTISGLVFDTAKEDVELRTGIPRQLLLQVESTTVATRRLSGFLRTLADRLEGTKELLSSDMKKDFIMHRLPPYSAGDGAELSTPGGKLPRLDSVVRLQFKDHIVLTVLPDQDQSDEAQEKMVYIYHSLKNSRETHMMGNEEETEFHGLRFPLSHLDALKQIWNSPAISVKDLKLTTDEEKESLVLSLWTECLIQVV

As for `O=C(O)c1c[nH]c(=S)[nH]c1=O` [compound 1], the “binding (trapping) of endogenous RPL27A substrate to HA-tagged MINA53” value (from here on “binding (trapping)”) in experiment [1] was “not”. Further, the “accumulation of cells in the G2/M phase of the cell cycle” value (“accumulation of cells” for short) in experiment [2] was “not”. Further, the IC50 in experiment [3], in [4], in [5], in [6], in experiment [7] and in experiment [8] was > 100 µM each time. In addition, in [9], the “combination index value with doxorubicin” value was “higher than 1”.
For `O=C(O)c1cnc(SCCc2ccccc2)[nH]c1=O` [compound 9, 2-(Phenethylthio)-3,4-dihydro-4-oxopyrimidine-5-carboxylic Acid], the “binding (trapping)” value in [1] is “increased binding”. Also, the “percentage of apoptotic cells (Sub-G1), with doxorubicin” value in [2] was “about 60%”. Moreover, the “accumulation of cells” value in experiment [2] was “induced accumulation of cells in the G2/M phase”. Moreover, the “percentage of apoptotic cells (Sub-G1), compound alone” value in [2] is recorded as “about 30%”. For the same compound, the IC50 in experiment [3] is > 100 µM; in [4] it was > 100 µM; in experiment [5], 91 ± 3 µM; in experiment [6], > 100 µM; in experiment [7], > 100 µM; in experiment [8] it was > 100 µM. The “cell viability reduction in cotreatment with doxorubicin” value in experiment [9] was “around 75%”. The “cell viability, single compound treatment” value in experiment [9] is “reduced cell viability in a dose-dependent manner”. Besides, the “sensitization of U-87MG cells to doxorubicin” value in experiment [9] is on record as “dose-dependent sensitization”. Further, the “combination index value with doxorubicin” value in [9] was “less than 1”.
Turning to `O=C(O)c1cnc(SCCCc2ccccc2)[nH]c1=O` [compound 10, 2-((3-Phenylpropyl)thio)-3,4-dihydro-4-oxopyrimidine-5-carboxylic Acid], in experiment [1], the “binding (trapping)” value was “increased binding”. Also, in experiment [2], the “percentage of apoptotic cells (Sub-G1), with doxorubicin” value is “about 60%”; the “accumulation of cells” value is on record as “induced accumulation of cells in the G2/M phase”; the “percentage of apoptotic cells (Sub-G1), compound alone” value is “about 30%”. In addition, in [3], the IC50 was > 100 µM. Besides, in experiment [4], the IC50 is > 100 µM. The IC50 in [5] worked out at 94 ± 4 µM. In [6], the IC50 was > 100 µM. Besides, the IC50 in [7] was > 100 µM. Also, in [8], the IC50 was > 100 µM. Besides, in experiment [9], the “cell viability reduction in cotreatment with doxorubicin” value is “around 75%”; the “cell viability, single compound treatment” value is reported as “reduced cell viability in a dose-dependent manner”; the “sensitization of U-87MG cells to doxorubicin” value is given as “dose-dependent sensitization”; the “combination index value with doxorubicin” value was “less than 1”.

(Values after paper PMC8667043, “First-in-Class Inhibitors of the Ribosomal Oxygenase MINA53” (Journal of Medicinal Chemistry, 2021).)
